In the assay the target is T1, human GPR139 (Homo sapiens, UniProt Q6DWJ6).
T1 construct: expressed in transfected cells; host or cells: CHO-TREx (Life Technologies) cells, expression induced with doxycycline
T1 sequence (Q6DWJ6 1-353): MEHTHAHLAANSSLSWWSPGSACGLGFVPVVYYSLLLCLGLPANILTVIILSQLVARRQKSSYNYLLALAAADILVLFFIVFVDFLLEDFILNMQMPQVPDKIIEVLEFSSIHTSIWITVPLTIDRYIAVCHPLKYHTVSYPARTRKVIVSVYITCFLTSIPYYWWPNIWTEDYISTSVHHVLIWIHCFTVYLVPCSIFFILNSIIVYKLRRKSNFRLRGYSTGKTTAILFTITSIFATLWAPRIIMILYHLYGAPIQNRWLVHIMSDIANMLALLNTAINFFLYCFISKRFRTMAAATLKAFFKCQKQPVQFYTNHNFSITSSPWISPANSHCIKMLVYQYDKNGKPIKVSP
Description: Inhibition rate of the amount of IP1 in GPR139-expressed CHO cells (inverse agonist assay, Test Example 2). To be noted: CHO, relative value, inhibition rate of Example Compound 2 in Test Example 1 defined as 100%. Type of assay: cell-based. An outline of the steps:
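CHO-TREx cells with doxycycline-inducible human GPR139 (2 μg/mL, 17 h) were incubated with compound at 2000 cells/well for 40 min at 37° C. IP1 quantified by HTRF (665/615 nm ratio ×10000); inhibition rate expressed relative to a reference compound defined as […].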
Take `C=Cc1cc(N2CCO[C@H](C)C2)cc(-n2ccn(Cc3cnn(CC)c3)c2=O)c1F` [Example 74, 1-{3-ethenyl-2-fluoro-5-[(2R)-2-methylmorpholin-4-yl]phenyl}-3-[(1-ethyl-1H-pyrazol-4-yl)methyl]-1,3-dihydro-2H-imidazol-2-one]: the inhibition at 30 µM is 98%.

As for `CCn1cc(Cn2cc(C)n(-c3cc(N4CCO[C@H](C)C4)cc(C(F)(F)F)c3F)c2=O)cn1` [Example 4, 1-[(1-ethyl-1H-pyrazol-4-yl)methyl]-3-{2-fluoro-5-[(2R)-2-methylmorpholin-4-yl]-3-(trifluoromethyl)phenyl}-4-methyl-1,3-dihydro-2H-imidazol-2-one], the inhibition at 30 µM was determined as 102%.

Consider `CCn1cc(Cn2c(C)c(C)n(-c3cc(OCC(F)F)cc(N4CCO[C@H](C)C4)c3)c2=O)cn1` [Example 46, 1-{3-(2,2-difluoroethoxy)-5-[(2R)-2-methylmorpholin-4-yl]phenyl}-3-[(1-ethyl-1H-pyrazol-4-yl)methyl]-4,5-dimethyl-1,3-dihydro-2H-imidazol-2-one], for which the inhibition at 30 µM amounted to 100%.

Turning to `CCn1cc(Cn2cnn(-c3cc(OCC4CC(F)(F)C4)cc(C(F)(F)F)c3F)c2=O)cn1` [Example 151, 2-{5-[(3,3-difluorocyclobutyl)methoxy]-2-fluoro-3-(trifluoromethyl)phenyl}-4-[(1-ethyl-1H-pyrazol-4-yl)methyl]-2,4-dihydro-3H-1,2,4-triazol-3-one], the inhibition at 30 µM was 98%.

As for `CCn1cc(Cn2cc(C)n(-c3cc(OCC4CCO4)cc(C(F)(F)F)c3)c2=O)cn1` (stereo not drawn) [Example 49, 1-[(1-ethyl-1H-pyrazol-4-yl)methyl]-4-methyl-3-{3-[(oxetan-2-yl)methoxy]-5-(trifluoromethyl)phenyl}-1,3-dihydro-2H-imidazol-2-one], the inhibition at 30 µM worked out at 102%.

Turning to `CCn1cc(Cn2c(Cl)nn(-c3cc(N4CCO[C@H](C)C4)cc(C(F)(F)F)c3F)c2=O)cn1` [Example 155, 5-chloro-4-[(1-ethyl-1H-pyrazol-4-yl)methyl]-2-{2-fluoro-5-[(2R)-2-methylmorpholin-4-yl]-3-(trifluoromethyl)phenyl}-2,4-dihydro-3H-1,2,4-triazol-3-one], the inhibition at 30 µM stood at 101%.

Turning to `Cc1cn(-c2cc(N3CCO[C@H](C)C3)cc(C(F)F)c2F)c(=O)n1Cc1cnn(C(C)C)c1` [Example 98, 1-{3-(difluoromethyl)-2-fluoro-5-[(2R)-2-methylmorpholin-4-yl]phenyl}-4-methyl-3-{[1-(propan-2-yl)-1H-pyrazol-4-yl]methyl}-1,3-dihydro-2H-imidazol-2-one], the inhibition at 30 µM was 99%.

As to `CCn1cc(Cn2c(C(F)(F)F)cn(-c3nc(N4CCO[C@H](C)C4)cc(C(F)(F)F)c3F)c2=O)cn1` [Example 127, 3-[(1-Ethyl-1H-pyrazole-4-yl)methyl]-1-{3 fluoro-6-[(2R)-2-methylmorpholine-4-yl]-4-(trifluoromethyl)pyridine-2-yl}-4-(trifluoromethyl)-1,3-dihydro-2H-imidazole-2-one], the inhibition at 30 µM amounted to 99%.

For the molecule `CCc1cc(N2CCO[C@H](C)C2)cc(-n2ccn(Cc3cnn(CC)c3)c2=O)c1F` [Example 80, 1-{3-ethyl-2-fluoro-5-[(2R)-2-methylmorpholin-4-yl]phenyl}-3-[(1-ethyl-1H-pyrazol-4-yl)methyl]-1,3-dihydro-2H-imidazol-2-one], the inhibition at 30 µM came to 99%.

Take `CCn1cc(Cn2ccn(-c3cc(OC4CCOCC4)cc(C(F)(F)F)c3F)c2=O)cn1` [Example 116, 1-[(1-ethyl-1H-pyrazol-4-yl)methyl]-3-{2-fluoro-5-[(oxan-4-yl)oxy]-3-(trifluoromethyl)phenyl}-1,3-dihydro-2H-imidazol-2-one]: the inhibition at 30 µM worked out at 101%.

Regarding `CCn1cc(Cn2cc(C)n(-c3cc(N4CCO[C@H](C)C4)cc(C(F)(F)F)c3Cl)c2=O)cn1` [Example 82, 3-{2-chloro-5-[(2R)-2-methylmorpholin-4-yl]-3-(trifluoromethyl)phenyl}-1-[(1-ethyl-1H-pyrazol-4-yl)methyl]-4-methyl-1,3-dihydro-2H-imidazol-2-one], the inhibition at 30 µM was 100%.

Take `CCn1cc(Cn2cc(C)n(-c3cc(Oc4ccc(F)cc4)cc(C(F)(F)F)c3)c2=O)cn1` [Example 5, 1-[(1-ethyl-1H-pyrazol-4-yl)methyl]-3-[3-(4-fluorophenoxy)-5-(trifluoromethyl)phenyl]-4-methyl-1,3-dihydro-2H-imidazol-2-one]: the inhibition at 30 µM amounted to 99%.

For `CCn1cc(Cn2c(C)cn(-c3cc(OC4CCOCC4)cc(C(F)(F)F)c3F)c2=O)cn1` [Example 117, 3-[(1-ethyl-1H-pyrazol-4-yl)methyl]-1-{2-fluoro-5-[(oxan-4-yl)oxy]-3-(trifluoromethyl)phenyl}-4-methyl-1,3-dihydro-2H-imidazol-2-one], the inhibition at 30 µM turned out to be 100%.

As to `CCn1cc(Cn2c(C)c(C)n(-c3cc(C4CC4)cc(N4CCO[C@H](C)C4)n3)c2=O)cn1` [Example 162, 1-{4-cyclopropyl-6-[(2R)-2-methylmorpholin-4-yl]pyridin-2-yl}-3-[(1-ethyl-1H-pyrazol-4-yl)methyl]-4,5-dimethyl-1,3-dihydro-2H-imidazol-2-one], the inhibition at 30 µM stood at 101%.

In the case of `CCn1cc(Cn2ccn(-c3cc(N(C)C4CCOCC4)cc(C(F)(F)F)c3F)c2=O)cn1` [Example 10, 1-[(1-ethyl-1H-pyrazol-4-yl)methyl]-3-{2-fluoro-5-[methyl(oxan-4-yl)amino]-3-(trifluoromethyl)phenyl}-1,3-dihydro-2H-imidazol-2-one], the inhibition at 30 µM is 100%.

In the case of `CCn1cc(Cn2ccn(-c3cc(N4CCO[C@H](C)C4)cc(C(F)(F)F)c3C)c2=O)cn1` [Example 8, 1-[(1-ethyl-1H-pyrazol-4-yl)methyl]-3-{2-methyl-5-[(2R)-2-methylmorpholin-4-yl]-3-(trifluoromethyl)phenyl}-1,3-dihydro-2H-imidazol-2-one], the inhibition at 30 µM is 101%.

On to `CCn1ncc(Cn2ccn(-c3cc(N4CCO[C@H](C)C4)cc(C(F)(F)F)c3F)c2=O)c1C` [Example 13, 1-[(1-ethyl-5-methyl-1H-pyrazol-4-yl)methyl]-3-{2-fluoro-5-[(2R)-2-methylmorpholin-4-yl]-3-(trifluoromethyl)phenyl}-1,3-dihydro-2H-imidazol-2-one], for which the inhibition at 30 µM was found to be 101%.

As for `Cc1nn(-c2cc(N3CCOC(C)(C)C3)cc(C(F)(F)F)c2F)c(=O)n1Cc1cnn(C(C)C)c1` [Example 93], the inhibition at 30 µM is 99%.

Consider `CCn1cc(Cn2c(C)c(C)n(-c3cc(OC[C@@H]4CCCO4)cc(C(F)(F)F)c3)c2=O)cn1` [Example 100], for which the inhibition at 30 µM turned out to be 99%.

For `CCn1cc(Cn2ccn(-c3cc(N4CCOC(C)(C)C4)cc(Br)c3F)c2=O)cn1` [Example 146, 1-[3-bromo-5-(2,2-dimethylmorpholin-4-yl)-2-fluorophenyl]-3-[(1-ethyl-1H-pyrazol-4-yl)methyl]-1,3-dihydro-2H-imidazol-2-one], the inhibition at 30 µM was 103%.

Turning to `CCn1cc(Cn2c(C)nn(-c3cc(C(F)(F)F)cc(N4CCC(F)(F)CC4)n3)c2=O)cn1` [Example 141], the inhibition at 30 µM was 101%.

Regarding `CCn1cc(Cn2cc(C)n(-c3cc(OC[C@@H]4CCCO4)cc(C(F)(F)F)c3)c2=O)cn1` [Example 66, 1-[(1-ethyl-1H-pyrazol-4-yl)methyl]-4-methyl-3-[3-{[(2S)-oxolan-2-yl]methoxy}-5-(trifluoromethyl)phenyl]-1,3-dihydro-2H-imidazol-2-one], the inhibition at 30 µM was 99%.

As to `CCn1cc(Cn2c(C)cn(-c3nc(N4CCOC(C)(C)C4)cc(C(F)(F)F)c3C)c2=O)cn1` [Example 120, 1-[6-(2,2-dimethylmorpholin-4-yl)-3-methyl-4-(trifluoromethyl)pyridin-2-yl]-3-[(1-ethyl-1H-pyrazol-4-yl)methyl]-4-methyl-1,3-dihydro-2H-imidazol-2-one], the inhibition at 30 µM stood at 102%.

For `CCn1cc(Cn2ccn(-c3cc(N4CCO[C@H](C)C4)cc(C4CC4)c3F)c2=O)cn1` [Example 44, 1-{3-cyclopropyl-2-fluoro-5-[(2R)-2-methylmorpholin-4-yl]phenyl}-3-[(1-ethyl-1H-pyrazol-4-yl)methyl]-1,3-dihydro-2H-imidazol-2-one], the inhibition at 30 µM was 100%.

Take `CCn1cc(Cn2cc(C)n(-c3cc(N4CCO[C@H](C)C4)cc(C(F)(F)F)c3)c2=O)cn1` [Example 14, 1-[(1-ethyl-1H-pyrazol-4-yl)methyl]-4-methyl-3-{3-[(2R)-2-methylmorpholin-4-yl]-5-(trifluoromethyl)phenyl}-1,3-dihydro-2H-imidazol-2-one]: the inhibition at 30 µM came to 99%.

For `CCc1nn(-c2cc(N3CCC(F)(F)CC3)cc(C(F)(F)F)c2F)c(=O)n1Cc1cnn(CC)c1` [Example 138, 2-[5-(4,4-difluoropiperidin-1-yl)-2-fluoro-3-(trifluoromethyl)phenyl]-5-ethyl-4-[(1-ethyl-1H-pyrazol-4-yl)methyl]-2,4-dihydro-3H-1,2,4-triazol-3-one], the inhibition at 30 µM came out at 100%.

As for `CCn1cc(Cn2ccn(-c3cc(N4CCC(F)(F)C4)cc(C(F)(F)F)c3F)c2=O)cn1` [Example 39, 1-[5-(3,3-difluoropyrrolidin-1-yl)-2-fluoro-3-(trifluoromethyl)phenyl]-3-[(1-ethyl-1H-pyrazol-4-yl)methyl]-1,3-dihydro-2H-imidazol-2-one], the inhibition at 30 µM came to 99%.

By inhibition is commonly meant the relative decrease from the control value, in per cent.
